Here are results for two compounds from patent publication US20110275644A1, “BIOLOGICAL MARKERS PREDICTIVE OF ANTI-CANCER RESPONSE TO INSULIN-LIKE GROWTH FACTOR-1 RECEPTOR KINASE INHIBITORS” (priority 2010, published 2011).

In one assay the test system is pERK. Put plainly: pERK in doxorubicin-treated A673 tumor cells. It counts as cell-based, human.
For a further assay, the system named is IR and IGF-1R. Put plainly: receptor phosphorylation in doxorubicin-treated A673 tumor cells. It counts as cell-based, human.
For assay [1], the system named is phospho-AKT. Put plainly: in vivo pharmacodynamic analysis, GEO tumors. On the set-up: species or system nu/nu CD-1 mice. The settings on record: GEO model. On the procedure: Tumor samples were collected at specified time points and snap frozen in liquid nitrogen. Tumor lysates were prepared by homogenizing samples in Precellys 24 homogenizer (MO Bio Laboratories, Inc., CA) with tumor lysis buffer (1% Triton X-100, 10% glycerol, 50 mM HEPES (ph 7.4), 150 mM NaCl, 1.5 mM MgCl2, 1 mM EDTA supplemented with fresh protease inhibitor cocktail (Sigma, Mo.), phosphatase inhibitor cocktail (Sigma, Mo.), 10 mM NaF and 1 mM sodium orthovanadate). Tissue homogenates were clarified by centrifugation at 14,000 g for 5 min at 4° C. and supernatants were then analyzed by Western blot or phospho-RTK array as indicated.

For assay [2], the target named is T1, phospho-IGF-1R (Homo sapiens, UniProt P08069). Put plainly: receptor phosphorylation in HT-29 CRC cells with insulin. The class given is cell-based. On the set-up: endogenous in cells; host or cells: human tumour cell lines (panel of nine; HT-29; MDAH-2774; H322, SK-N-AS, H295R, A673). The settings on record: HT-29 cells treated with 5 or 50 μIU/mL insulin; OSI-906 3 μM or MAB391 3 μg/ml, 16 hours. On the procedure:
(§1) Preparation of Protein Lysates and Western Blotting: Lysates for Western blotting were prepared as previously described (44). Antibodies included: IGF-1R (Santa Cruz), IR (Santa Cruz), phospho-p42/p44 (Cell Signaling Technologies), phospho-Akt (S473) (Cell Signaling Technologies), phospho-Akt (T308) (Cell Signaling Technologies), phosho-S6 (235/236) (Cell Signaling Technologies), phosphor-PRAS40 (Cell Signaling Technologies), and phosphor-IRS-1-Y612 (Biosource).
(§2) Analysis of RTK phosphorylation via a proteome array: Proteome Profiler arrays containing capture antibodies for 42 RTKs were from R&D systems (RTK Proteome Profile; R&D Systems, Minneapolis, Minn.) and processed according to manufacturer's protocol. pIGF-1R and pIR were determined by RTK capture array. Proteome profiler arrays housed 42 different RTKs. RTKs included on the array include: HER1, HER2, HER3, HER4, FGFR1, FGFR2a, FGFR3, FGFR4, IR, IGF-1R, Axl, Dtk, Mer, HGFR, MSPR, PDGFRα, PDGFRβ, SCFR, Flt-3, M-CSFR, c-Ret, ROR1, ROR2, Tie-1, Tie-2, TrkA, TrkB, TrkC, VEGFR1, VEGFR2, VEGFR3, MuSK, EphA1, EphA2, EphA3, EphA4, EphA6, EphA7, EphB1, EphB2, EphB4, EphB6. This array was used as an RTK capture assay for determining pIGF-1R and pIR levels. Capture antibodies specific to each RTK are used to bind RTKs in tumor cell extracts. […]

Assay [3] has as its system SK-N-AS (neuroblastoma) tumors. Put plainly: tumor xenograft anti-tumor efficacy. It counts as in vivo, nu/nu CD-1 mice. The source says:
(§3) Animals: Female nu/nu CD-1 mice (6-8 weeks, 22-25 g) were purchased from Charles River Laboratories (Wilmington, Mass.) and maintained in an AAALAC-accredited facility at OSI Pharmaceuticals as described previously (12).
(§4) In vivo anti-tumor efficacy studies: Cells were harvested and implanted s.c. in the right flank of nu/nu CD-1 mice as described previously (12). Tumors were allowed to establish to 200±50 mm^3 in size before randomization into various treatment groups. […] Tumor volumes were determined from caliper measurements using the formula V=(length×width^2)/2. Tumor sizes and body weights were measured twice weekly. Tumor growth inhibition (TGI) was determined at different time points by the following formula: % TGI={1−[(Tt/T0)/(Ct/C0)]/1[C0/Ct}×100, where Tt=median tumor volume of treated at time t, T0=median tumor volume of treated at time 0, Ct=median tumor volume of control at time t, and C0=median tumor volume of control at time 0.

A further assay relates to GEO (CRC) tumors. Put plainly: tumor xenograft anti-tumor efficacy. The class given is in vivo, nu/nu CD-1 mice. The settings on record: OSI-906 50 mg/kg once-daily for 14 days; MAB391 every three days for a total of 5 doses.
Source text: as §3, §4

The test system of assay [4] is broad panel (n=116) of additional RTKs and other protein kinases. The settings on record: at 1 μM; cited from earlier work.
In assay [5] the test system is phospho-AKT or phospho-ERK. Put plainly: Western blot, downstream AKT and ERK signaling in tumor cell lines. It counts as cell-based, human. The following applies: OSI-906 3 μM or MAB391 3 μg/ml, 16 hour. On the procedure:
as §1
For orientation: Immunoblotting shows a protein as a band on a membrane.

Assay [6] deals with T1, phospho-IGF-1R. Put plainly: receptor phosphorylation in MDAH-2774 cells. It counts as cell-based. The settings on record: MDAH-2774 cells alone or with insulin, IGF-1 or IGF-2; OSI-906 3 μM or MAB391 3 μg/ml. On the set-up: endogenous in cells; host or cells: human tumour cell lines (MDAH-2774). On the procedure:
as §1, §2

For assay [7], the target named is T1, phospho-IGF-1R. Put plainly: RTK capture array, panel of nine tumor cell lines. The class given is cell-based. On the set-up: endogenous in cells; host or cells: human tumour cell lines (panel of nine; HT-29; MDAH-2774; H322, SK-N-AS, H295R, A673). The settings on record: OSI-906 3 μM or MAB391 3 μg/mL; 16 hours; each cell line tested. On the procedure:
Analysis of RTK phosphorylation via a proteome array: Proteome Profiler arrays containing capture antibodies for 42 RTKs were from R&D systems (RTK Proteome Profile; R&D Systems, Minneapolis, Minn.) and processed according to manufacturer's protocol. pIGF-1R and pIR were determined by RTK capture array. Proteome profiler arrays housed 42 different RTKs. RTKs included on the array include: HER1, HER2, HER3, HER4, FGFR1, FGFR2a, FGFR3, FGFR4, IR, IGF-1R, Axl, Dtk, Mer, HGFR, MSPR, PDGFRα, PDGFRβ, SCFR, Flt-3, M-CSFR, c-Ret, ROR1, ROR2, Tie-1, Tie-2, TrkA, TrkB, TrkC, VEGFR1, VEGFR2, VEGFR3, MuSK, EphA1, EphA2, EphA3, EphA4, EphA6, EphA7, EphB1, EphB2, EphB4, EphB6. This array was used as an RTK capture assay for determining pIGF-1R and pIR levels. Capture antibodies specific to each RTK are used to bind RTKs in tumor cell extracts. An HRP-conjugated pan anti-phospho-tyrosine antibody is used to specifically detect phosphorylated RTKs.

A further assay concerns FaDu tumors. Put plainly: tumor xenograft anti-tumor efficacy. On the set-up: species or system nu/nu CD-1 mice. The following applies: after treatment with OSI-906 in vivo for 10-14 days.
Source text: as §3, §4

The test system of another assay is H295R tumors. Put plainly: tumor xenograft anti-tumor efficacy. The following applies: after treatment with OSI-906 in vivo for 10-14 days. On the set-up: species or system nu/nu CD-1 mice.
Source text: as §3, §4

In another assay the test system is Colo205 tumors. Put plainly: tumor xenograft anti-tumor efficacy. On the set-up: species or system nu/nu CD-1 mice. The settings on record: after treatment with OSI-906 in vivo for 10-14 days.
Source text: as §3, §4

The next assay concerns H460 tumors. Put plainly: tumor xenograft anti-tumor efficacy. The settings on record: after treatment with OSI-906 in vivo for 10-14 days. On the set-up: species or system nu/nu CD-1 mice.
Source text: as §3, §4

For another assay, the system named is BxPC3 tumors. Put plainly: tumor xenograft anti-tumor efficacy. On the set-up: species or system nu/nu CD-1 mice. The following applies: after treatment with OSI-906 in vivo for 10-14 days.
Source text: as §3, §4

In a further assay the test system is phospho-PRAS40. Put plainly: Western blot, phospho-PRAS40 in H295R cells. The class given is cell-based, human. As to the method: as §1
A further assay concerns phospho-IRS1^Y612. Put plainly: Western blot, phospho-IRS1 in tumor cell lines. It counts as cell-based, human. The following applies: A673, H322, and H295R tumor cell lines; OSI-906 3 μM or MAB391 3 μg/ml. As to the method:
as §1

In assay [8] the test system is phospho-AKT. Put plainly: phospho-AKT in HT-29 CRC cells with insulin. It counts as cell-based, human. The following applies: HT-29 cells, basal or 5 or 50 μIU/mL insulin. As to the method:
as §1

Assay [9] has as its system MDAH-2774 OvCa tumor cells. Put plainly: growth inhibition assay (Cell Titer-Glo). The class given is cell-based, human. From the text: Cell Lines and Culture. Human cancer cell lines, were obtained from American Type Culture Collection (ATCC, Manassas, Va.), or the following additional indicated sources, and cultured in media as described. Tumor types are also indicated: H295R (adrenocortical carcinoma; ATCC), NCI-[…], NCI-[…], SW1573 (NSCLC; ATCC), […], BxPC3 (pancreatic; ATCC), OVCAR5 (ovarian; NCI;), MDAH-2774 (ovarian; ATCC), Igrov1 (ovarian; NCI), GEO (colon; Roswell Park Cancer Institute (RPCC)), HT-29 (colon; ATCC), RKO (colon; ATCC), […], 8226 (myeloma; ATCC), H929 (myeloma; ATCC), U266 (myeloma; ATCC), SKES1 (Ewings sarcoma; ATCC), RDES (Ewings sarcoma; ATCC), RD (rhabdomyosarcoma; ATCC), DU4475 (breast; ATCC), SKNAS (neuroblastoma; ATCC), 2650 (nasal SCC; ATCC), OVCAR4 (ovarian; NCI), A673 (Ewings sarcoma; ATCC), BT474 (breast; ATCC), 1386 (oral SCC; MSKCC, NY), 1186 (SCCHN; MSKCC, NY), Colo205 (colon; ATCC), HCT-15 (colon; ATCC), Fadu (oral SCC; ATCC), SKBR3 (breast; ATCC), 1483 (HNSCC; MSKCC, NY), HSC-2 (HNSCC; RIKEN BioResource Center, Tsukuba, Ibaraki, 305-0074, Japan). […] The cells were routinely screened for the presence of mycoplasma (MycoAlert, Cambrex Bio Science, Baltimore, Md.). For growth inhibition assays, cells were plated and allowed to proliferate for 24 hours. […] Cell viability was assayed using the Cell Titer-Glo reagent (Promega Corp., Madison, Wis.).
For orientation: In ATP-based viability assays light output follows the ATP content of the culture.

The mark [10] stands for this setting: A673 tumor cells, doxorubicin 300 nM.

T1 sequence (P08069 31-1367): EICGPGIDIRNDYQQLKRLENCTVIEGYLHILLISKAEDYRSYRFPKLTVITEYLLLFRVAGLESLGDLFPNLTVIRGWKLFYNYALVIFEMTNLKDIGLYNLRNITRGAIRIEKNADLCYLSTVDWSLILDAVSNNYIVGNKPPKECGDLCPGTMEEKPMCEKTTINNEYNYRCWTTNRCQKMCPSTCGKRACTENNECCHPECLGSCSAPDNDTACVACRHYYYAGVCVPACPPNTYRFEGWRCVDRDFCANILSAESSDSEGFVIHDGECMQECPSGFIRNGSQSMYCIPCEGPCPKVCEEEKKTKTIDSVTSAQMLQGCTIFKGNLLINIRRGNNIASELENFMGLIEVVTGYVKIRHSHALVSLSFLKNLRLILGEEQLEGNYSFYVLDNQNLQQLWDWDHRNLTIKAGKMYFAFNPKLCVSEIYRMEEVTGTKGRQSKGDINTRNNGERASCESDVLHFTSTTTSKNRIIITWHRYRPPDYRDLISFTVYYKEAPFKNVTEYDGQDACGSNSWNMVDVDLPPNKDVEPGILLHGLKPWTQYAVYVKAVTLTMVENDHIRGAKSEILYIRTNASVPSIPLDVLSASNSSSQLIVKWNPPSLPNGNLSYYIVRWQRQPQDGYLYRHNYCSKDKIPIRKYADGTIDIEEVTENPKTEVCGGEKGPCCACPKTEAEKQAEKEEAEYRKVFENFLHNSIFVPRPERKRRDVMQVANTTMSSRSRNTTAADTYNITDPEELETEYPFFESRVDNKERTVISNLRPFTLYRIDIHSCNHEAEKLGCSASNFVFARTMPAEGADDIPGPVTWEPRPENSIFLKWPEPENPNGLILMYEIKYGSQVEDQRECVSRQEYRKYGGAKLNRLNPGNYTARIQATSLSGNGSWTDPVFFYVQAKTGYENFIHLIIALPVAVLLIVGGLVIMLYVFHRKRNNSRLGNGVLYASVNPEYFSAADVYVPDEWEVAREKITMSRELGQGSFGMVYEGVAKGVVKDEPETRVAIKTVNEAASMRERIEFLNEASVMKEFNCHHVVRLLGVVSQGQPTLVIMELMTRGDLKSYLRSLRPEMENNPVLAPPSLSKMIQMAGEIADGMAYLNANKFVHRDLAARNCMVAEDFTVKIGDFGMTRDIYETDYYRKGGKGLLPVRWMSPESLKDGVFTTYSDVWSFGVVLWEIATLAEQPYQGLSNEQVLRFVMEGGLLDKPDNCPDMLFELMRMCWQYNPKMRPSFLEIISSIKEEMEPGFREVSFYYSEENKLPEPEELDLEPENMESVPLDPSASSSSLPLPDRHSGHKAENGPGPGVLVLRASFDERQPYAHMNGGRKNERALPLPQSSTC

As for `COc1cccc2c1C(=O)c1c(O)c3c(c(O)c1C2=O)C[C@@](O)(C(=O)CO)C[C@@H]3O[C@H]1C[C@H](N)[C@H](O)[C@H](C)O1` [doxorubicin, reference compound], in the assay with pERK (setting [10]), the “downstream signaling at the level of pERK following treatment” value is recorded as “increased phosphorylation of downstream signaling at the level of pERK”. For the same compound, the “phosphorylation of IR and IGF-1R following treatment” value with IR and IGF-1R (setting [10]) was “upregulated phosphorylation of both IR and IGF-1R”.
`C[C@]1(O)C[C@@H](c2nc(-c3ccc4ccc(-c5ccccc5)nc4c3)c3c(N)nccn32)C1` [OSI-906, cis-3-[8-amino-1-(2-phenyl-quinolin-7-yl)-imidazo[1,5-a]pyrazin-3-yl]-1-methyl-cyclobutanol]: the “effect on phospho-AKT in tumors” value in the assay on phospho-AKT [1] is recorded as “decreased phospho-AKT in tumors”. Besides, the “inhibition of phospho-IGF-1R” value on phospho-IGF-1R [2] was “fully inhibited”. In addition, in assay [3] (OSI-906 50 mg/kg once-daily for 14 days, MAB391 1 mg every three days intraperitoneally), the “mean tumor growth inhibition (TGI) over the dosing period” value turned out to be 100%. The “% TGI” value is reported as 71% in [3] (after treatment with OSI-906 in vivo for 10-14 days); under 30% with FaDu tumors; 85% in the assay on H295R tumors; 90% with Colo205 tumors; under 30% in the assay with H460 tumors; 56% with BxPC3 tumors. Further, the “mean TGI over the dosing period” value in the assay with GEO (CRC) tumors was 79%. The “inhibition of pERK” value in the assay on pERK (A673 tumor cells treated with doxorubicin (300 nM), compared with MAB391) is “greater inhibition of pERK”. For the same compound, in [4], the inhibition – broadly, the percentage by which the read-out fell short of the control – is under 50%. Moreover, the “decrease of phospho-AKT or phospho-ERK levels” value in assay [5] (H322, H295R, and A673 cells) is “to a greater extent than did MAB391”. The “effect on phospho-AKT levels” value in assay [5] (SK-N-AS (neuroblastoma) tumor cells) was “decrease phospho-AKT levels”. The “inhibition of IR and IGF-1R phosphorylation” value with IR and IGF-1R (A673 tumor cells treated with doxorubicin (300 nM)) was “inhibits both IR and IGF-1R”. For the same compound, the “inhibition of IGF-1R phosphorylation” value against phospho-IGF-1R [6] is “fully inhibited”. Further, the “decrease of phospho-IGF-1R” value at phospho-IGF-1R [7] was over 90%. Besides, the “effect on phospho-PRAS40” value in the assay with phospho-PRAS40 was “decreased phospho-PRAS40”. In addition, the “inhibition of phosphorylation of IRS1^Y612” value in the assay on phospho-IRS1^Y612 is listed as “strongly inhibited”. In the assay with phospho-AKT [8], the “inhibition of phospho-AKT” value is “fully inhibited”. Moreover, the “sensitivity to OSI-906 in vitro” value in assay [9] is listed as “sensitive”.
